{"source": "paper PMC8281026", "about": "“Peptide Based Inhibitors of Protein Binding to the Mitogen-Activated Protein Kinase Docking Groove” (Frontiers in Molecular Biosciences, 2021)", "key": {"[1]": {"system": "ERK1/2 phosphorylation in HEK-293T cells", "assay": "ERK phosphorylation level in cells by Western-blot after EGF stimulation", "assay_type": "cell-based", "conditions": "pre-treated 20 μM, 5 h, EGF 100 ng/ml", "protocol": "To study the effect of peptides on the ERK pathway EGF stimulation and Western-blot analysis were used. HEK-293T cells were plated on 48-well plate and were serum-starved for overnight. Then cells were treated with the Cf-peptide at 20µM for 5 h in 100 μL DMEM and then stimulated by addition of EGF (Sigma, E9644) in 100 ng/mL concentration. Stimulation was terminated at different time points by adding 35 μL 4× SDS loading buffer. Cells were lysed and 10 μL of each sample was subjected to SDS-PAGE. […] The intensities of the protein bands were determined by densitometry and monitored after the stimulation in time. […] Activated (i.e., phosphorylated) ERK and p38 were detected by phospho-p44/42 MAPK (ERK1/2) (see above) and phospho-p38 MAPK (Thr180/Tyr182) rabbit primary antibody (Cell Signaling, #9215) in 1:2000 dilution, respectively. The total ERK and p38 content of the samples were determined by anti-p44/42 MAPK (ERK1/2) mouse primary antibody and anti-p38α MAPK mouse mAb (Cell Signaling, #9228), respectively. […] As secondary antibody anti-rabbit antibody (IRDye® 800CW Goat anti-Rabbit IgG, #926-32211) in 1:5,000 and secondary anti-mouse antibody (IRDye® 680CW Goat anti-Mouse IgG, #926-68070 in 1: 10,000 were used. Protein bands were detected and quantified with LI-COR Odyssey® Clx infrared imaging system. Statistical analysis was done using two-sided independent Student’s t-test."}, "HEK-293T cells [2]": {"system": "HEK-293T cells", "assay": "Cellular uptake by fluorescence microscopy", "assay_type": "cell-based", "conditions": "fluorescence microscopy", "protocol": "(§1) The cellular uptake of the fluorescent labeled peptide into HEK-293T cells were analyzed by fluorescence microscopy (Cytation 3, BioTek Instruments) and two peptides were further examined by confocal laser scanning microscopy (Zeiss LSM-710 system). Cells were incubated with peptides in serum-free medium (DMEM) for 3 h at 37 °C and then washed twice with 200 μl of serum-free medium before analyzing."}, "HEK-293T cells [3]": {"system": "HEK-293T cells", "assay": "Intracellular distribution by confocal laser scanning microscopy", "assay_type": "cell-based", "conditions": "10 and 20 µM, 3 h", "protocol": "as §1"}, "HL-60 cells [4]": {"system": "HL-60 cells", "assay": "Percent of live cells by flow cytometry", "assay_type": "cell-based, human", "conditions": "10 µM, 90 min, serum-free media, HL-60, three independent measurements", "protocol": "(§2) To study the cellular uptake of fluorescent labeled peptides and conjugate by flow cytometry, 10^5 HL-60 cells per well were plated on 24-well plates and were incubated for 24 h at 37°C. Then cells were treated with the solution of compounds in serum-free media for 90 min. The cellular uptake was analysed at 1, 5 and 10 µM concentrations. Cells treated with serum-free media were the control. At the end of incubation, treatment solutions were removed, and the cells were treated with 100 μL trypsin for 2 min to remove the membrane proteins in order to eliminate non-specific binding of conjugates. The effect of trypsin was terminated by 900 μL HPMI containing 10% fetal calf serum, and the cell suspensions were transferred into FACS-tubes. After centrifugation at 216g at 4°C for 5 min the supernatant was removed. Then cells were resuspended in 500 µl HPMI, and the intracellular fluorescence intensity of HL-60 cells was monitored (on channel FITC LP505; emission at λ = 505 nm; LP 505, BP 530/30) by flow cytometry (BD LSR II, BD Bioscience, San Jose, CA, equipped with 488 nm; Coherent Sapphire, 22 mW laser.) which is proportional to the cellular uptake. Data were analysed with FACSDiVa 5.0 software. Statistical analysis was done using two-sided independent Student’s t-test."}, "HL-60 cells [5]": {"system": "HL-60 cells", "assay": "Cellular uptake by flow cytometry", "assay_type": "cell-based, human", "conditions": "for fluorescence intensity relative to peptide 9: 90 min, HL-60, flow cytometry, trypsin treated", "protocol": "as §2"}}}
{"substance": "Cf-SLQRKKPPWLKLDIPSC(CH2-CO-RRRRRRRR-NH2)-NH2 [compound 3, Cf-labeled octaarginine conjugate]", "values": [{"measurement": "amount of phosphorylated ERK", "setting": "[1]", "value": "some reduction"}, {"measurement": "internalization of the conjugate into HEK-293T cells", "setting": "HEK-293T cells [2]; after 5 h of treatment at 5 µM (Figure 4 legend: 20 μM, 5 h)", "value": "showed internalization"}]}
{"substance": "Dabcyl-RRRPPWLRLDIRRK(Cf)-NH 2 [compound 11]", "values": [{"measurement": "intracellular distribution", "setting": "HEK-293T cells [3]", "value": "more diffuse distribution"}, {"measurement": "number of live cells", "setting": "HL-60 cells [4]", "value": 40, "unit": "%"}, {"measurement": "fluorescence intensity relative to peptide 9", "setting": "HL-60 cells [5]; 1 µM", "value": 9.2, "unit": "times"}, {"measurement": "fluorescence intensity relative to peptide 9", "setting": "HL-60 cells [5]; 5 µM", "value": 23.5, "unit": "times"}, {"measurement": "fluorescence intensity relative to peptide 9", "setting": "HL-60 cells [5]; 10 µM", "value": 16.9, "unit": "times"}, {"measurement": "internalization compared to the peptide without the Dabcyl-group", "setting": "HL-60 cells [5]; at different concentrations", "value": "10–24 times"}, {"measurement": "internalization into HEK-293T cells", "setting": "HEK-293T cells [2]; serum-free medium, 37 °C, up to 3 h, Figure 1", "value": "increased the peptide internalization"}]}
